Assay results published in patent US10689354B2, “Aminoazole derivative” (Teijin Pharma Limited, priority 2015, dated 2020).

Legend:
[1] = target: T1, androgen receptor (AR-LBD) (Rattus norvegicus, UniProt P15207); assay: Evaluation of androgen receptor affinity (PolarScreen Androgen Receptor Competitor Assay Kit, Red; fluorescence polarization); conditions: 22° C. for 5 hours, relative to binding rate of 1 μM DHT, read-out: AR affinity (pEC50) (converted)
T1 construct: 5 μL of 2×AR-LBD/Fluoromone AL Red Complex contained in the kit; purchased Invitrogen
T1 sequence (P15207 651-882 limits assumed): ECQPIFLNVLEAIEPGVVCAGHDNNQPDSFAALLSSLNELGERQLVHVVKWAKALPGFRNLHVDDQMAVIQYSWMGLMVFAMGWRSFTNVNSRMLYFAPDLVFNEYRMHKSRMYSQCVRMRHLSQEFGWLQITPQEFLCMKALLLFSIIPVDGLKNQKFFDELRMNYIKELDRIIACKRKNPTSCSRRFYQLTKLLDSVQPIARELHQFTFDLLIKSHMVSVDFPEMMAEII
Method in brief: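 Duplicate wells; compound plus AR-LBD tracer complex incubated 22° C for 5 h, then FP measured. Effect compared with 1 μM DHT; 50%-effect concentration expressed as pEC50.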

[2] = target: T2, human androgen receptor (Homo sapiens, UniProt P10275); assay: Reporter assay of an androgen receptor responsive sequence (luciferase, transiently transfected HEK293 cells); assay type: cell-based; conditions: 24 hours incubation, relative to activity of 100 nM DHT, read-out: AR transcriptive activity (pEC50) (converted)
T2 construct: expressed in transfected cells; host or cells: HEK293
T2 sequence (P10275 1-920): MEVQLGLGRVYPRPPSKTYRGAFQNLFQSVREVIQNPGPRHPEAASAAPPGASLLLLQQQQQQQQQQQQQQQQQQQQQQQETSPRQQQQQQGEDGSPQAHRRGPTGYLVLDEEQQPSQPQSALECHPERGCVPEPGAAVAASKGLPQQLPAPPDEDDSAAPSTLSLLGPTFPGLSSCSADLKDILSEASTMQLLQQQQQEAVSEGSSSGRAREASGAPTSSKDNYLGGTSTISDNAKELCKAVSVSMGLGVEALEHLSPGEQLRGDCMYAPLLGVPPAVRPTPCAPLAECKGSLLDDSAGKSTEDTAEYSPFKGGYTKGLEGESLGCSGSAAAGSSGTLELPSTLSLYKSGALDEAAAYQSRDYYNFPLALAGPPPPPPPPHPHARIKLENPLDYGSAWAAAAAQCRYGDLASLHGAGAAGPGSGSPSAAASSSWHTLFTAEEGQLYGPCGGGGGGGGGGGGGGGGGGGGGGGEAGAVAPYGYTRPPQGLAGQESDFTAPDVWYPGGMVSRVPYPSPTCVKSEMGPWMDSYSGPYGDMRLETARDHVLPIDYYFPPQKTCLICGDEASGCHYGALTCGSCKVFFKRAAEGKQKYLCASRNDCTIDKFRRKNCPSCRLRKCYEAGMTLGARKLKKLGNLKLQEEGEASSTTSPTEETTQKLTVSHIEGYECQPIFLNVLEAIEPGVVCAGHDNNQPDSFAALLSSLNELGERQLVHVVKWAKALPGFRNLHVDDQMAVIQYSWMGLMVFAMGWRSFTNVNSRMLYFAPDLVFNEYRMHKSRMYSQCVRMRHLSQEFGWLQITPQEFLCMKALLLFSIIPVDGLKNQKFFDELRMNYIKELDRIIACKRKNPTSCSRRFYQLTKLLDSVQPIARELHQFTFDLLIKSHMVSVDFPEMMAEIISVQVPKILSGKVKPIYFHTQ
Method in brief: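 Agonism scored as pEC50, fitted by 4-parameter curve against the response to 100 nM DHT, from dual-luciferase readout after 24 h compound treatment. Cells were HEK293 co-transfected (3 h) with human AR expression vector, androgen-responsive firefly reporter and Renilla control, in charcoal-stripped serum.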

| EC50 [1] | EC50 [2] | SMILES |
| --- | --- | --- |
| 31.6 nM | 398 nM | Cc1sc(N(CCC2CCCCC2)Cc2ccc(Cl)cc2)nc1C(=O)NS(=O)(=O)Cc1cccnc1 [Compound 325, 2-[(4-chlorophenyl)methyl-(2-cyclohexylethyl)amino]-5-methyl-N-(3-pyridylmethylsulfonyl)thiazole-4-carboxamide] |
| 501 nM | 316 nM | Cc1oc(N(Cc2ccc(Cl)cc2)c2ccc(C#N)cc2)nc1C(=O)NS(C)(=O)=O [Example 286, 2-[N-[(4-chlorophenyl)methyl]-4-cyano-anilino]-5-methyl-N-methylsulfonyl-oxazole-4-carboxamide] |
| 158 nM | 316 nM | Cc1sc(N(CC[C@@H]2CCCC[C@H]2O)c2ccc(C#N)cc2)nc1C(=O)NS(C)(=O)=O (racemic) [Compound 410, 2-[4-cyano-N-[2-[trans-2-hydroxycyclohexyl]ethyl]anilino]-5-methyl-N-methylsulfonyl-thiazole-4-carboxamide] |
| 126 nM | > 10000 nM | Cc1sc(N(Cc2ccccc2)c2ccc(C#N)cc2)nc1C(=O)NS(=O)(=O)Cc1cccc(Cl)c1 [Compound 386, 2-(N-benzyl-4-cyano-anilino)-N-[(3-chlorophenyl)methylsulfonyl]-5-methyl-thiazole-4-carboxamide] |
| 316 nM | 5010 nM | Cc1cc(CN(CCc2ccc(Cl)cc2)c2nc(C(=O)NS(C)(=O)=O)c(C)s2)no1 [Compound 508, 2-[2-(4-chlorophenyl)ethyl-[(5-methylisoxazol-3-yl)methyl]amino]-5-methyl-N-methylsulfonyl-thiazole-4-carboxamide] |
| 79.4 nM | 50.1 nM | COc1ccc(CN(c2ccc(C#N)cc2)c2nc(C(=O)NS(C)(=O)=O)c(Cl)s2)cc1 [Example 271, 5-chloro-2-[4-cyano-N-[(4-methoxyphenyl)methyl]anilino]-N-methylsulfonyl-thiazole-4-carboxamide] |
| 31.6 nM | 158 nM | Cc1sc(N(CCc2ccc(Cl)cc2)Cc2ccc(OC(F)(F)F)cc2)nc1C(=O)NS(=O)(=O)Cc1cccnc1 [Compound 703, 2-[2-(4-chlorophenyl)ethyl-[[4-(trifluoromethoxy)phenyl]methyl]amino]-5-methyl-N-(3-pyridylmethylsulfonyl)thiazole-4-carboxamide] |
| 50.1 nM | 501 nM | Cc1sc(N(Cc2cnc(C(F)(F)F)c(Cl)c2)c2ccc(C#N)cc2)nc1C(=O)NS(C)(=O)=O [Compound 530, 2-[N-[[5-chloro-6-(trifluoromethyl)-3-pyridyl]methyl]-4-cyano-anilino]-5-methyl-N-methylsulfonyl-thiazole-4-carboxamide] |
| 50.1 nM | 794 nM | Cc1sc(N(CCc2ccc(Cl)cc2)CC[C@H]2CCCC[C@@H]2O)nc1C(=O)NS(C)(=O)=O (racemic) [Compound 146, 2-[2-(4-chlorophenyl)ethyl-[2-[trans-2-hydroxycyclohexyl]ethyl]amino]-5-methyl-N-methylsulfonyl-thiazole-4-carboxamide] |

Further lines, the compound ahead of its results:

| SMILES | EC50 [1] | EC50 [2] |
| --- | --- | --- |
| Cc1sc(N(Cc2cccc(CO)c2)c2ccc(C#N)cc2)nc1C(=O)NS(C)(=O)=O [Compound 6, 2-[4-cyano-N-[[3-(hydroxymethyl)phenyl]methyl]anilino]-5-methyl-N-methylsulfonyl-thiazole-4-carboxamide] | 200 nM | 316 nM |
| Cc1sc(N(CCCC2CCCC2)c2ccc(C#N)cc2)nc1C(=O)NS(C)(=O)=O [Compound 485, 2-[4-cyano-N-(3-cyclopentylpropyl)anilino]-5-methyl-N-methylsulfonyl-thiazole-4-carboxamide] | 20 nM | 126 nM |
| Cc1sc(N(CC2CCC(F)(F)CC2)c2ccc(C#N)cc2)nc1C(=O)NS(C)(=O)=O [Compound 39, 2-[4-cyano-N-[(4,4-difluorocyclohexyl)methyl]anilino]-5-methyl-N-methylsulfonyl-thiazole-4-carboxamide] | 251 nM | 1260 nM |
| Cc1sc(N(Cc2nc3ccccc3s2)c2ccc(C#N)cc2)nc1C(=O)NS(C)(=O)=O [Compound 497, 2-[N-(1,3-benzothiazol-2-ylmethyl)-4-cyano-anilino]-5-methyl-N-methylsulfonyl-thiazole-4-carboxamide] | 126 nM | 200 nM |
| Cc1sc(N(CCC2CCCCO2)c2ccc(C#N)cc2)nc1C(=O)NS(C)(=O)=O (centres unmarked) [Compound 443, 2-[4-cyano-N-(2-tetrahydropyran-2-ylethyl)anilino]-5-methyl-N-methylsulfonyl-thiazole-4-carboxamide] | 200 nM | 501 nM |
| Cc1sc(N(Cc2ccc3ncsc3c2)c2ccc(C#N)cc2)nc1C(=O)NS(C)(=O)=O [Compound 50, 2-[N-(1,3-benzothiazol-6-ylmethyl)-4-cyano-anilino]-5-methyl-N-methylsulfonyl-thiazole-4-carboxamide] | 79.4 nM | 50.1 nM |
| CCc1oc(N(Cc2cc(F)cc(OC(F)F)c2)c2ccc(C#N)cc2)nc1C(=O)NS(C)(=O)=O [Compound 656, 2-[4-cyano-N-[[3-(difluoromethoxy)-5-fluoro-phenyl]methyl]anilino]-5-ethyl-N-methylsulfonyl-oxazole-4-carboxamide] | 20 nM | 631 nM |
| COCCCS(=O)(=O)NC(=O)c1nc(N(CCc2ccc(C#N)cc2)Cc2ccc(F)cc2Cl)oc1C [Compound 558, 2-[(2-chloro-4-fluoro-phenyl)methyl-[2-(4-cyanophenyl)ethyl]amino]-N-(3-methoxypropylsulfonyl)-5-methyl-oxazole-4-carboxamide] | 63.1 nM | > 10000 nM |
| Cc1sc(N(Cc2ccc(Cl)cn2)c2ccc(C#N)cc2)nc1C(=O)NS(C)(=O)=O [Compound 152, 2-[N-[(5-chloro-2-pyridyl)methyl]-4-cyano-anilino]-5-methyl-N-methylsulfonyl-thiazole-4-carboxamide] | 200 nM | 100 nM |
| Cc1sc(N(Cc2ccc3nonc3c2)c2ccc(C#N)cc2)nc1C(=O)NS(C)(=O)=O [Compound 361, 2-[N-(2,1,3-benzoxadiazol-5-ylmethyl)-4-cyano-anilino]-5-methyl-N-methylsulfonyl-thiazole-4-carboxamide] | 39.8 nM | 631 nM |
| CCc1oc(N(Cc2ccc(Cl)c(F)c2)c2ccc(C#N)cc2)nc1C(=O)NS(C)(=O)=O [Compound 651, 2-[N-[(4-chloro-3-fluoro-phenyl)methyl]-4-cyano-anilino]-5-ethyl-N-methylsulfonyl-oxazole-4-carboxamide] | 39.8 nM | 200 nM |
| CCc1oc(N(Cc2ccc(C(F)(F)F)cn2)c2ccc(C#N)cc2)nc1C(=O)NS(C)(=O)=O [Compound 638, 2-[4-cyano-N-[[5-(trifluoromethyl)-2-pyridyl]methyl]anilino]-5-ethyl-N-methylsulfonyl-oxazole-4-carboxamide] | 200 nM | 3160 nM |
| Cc1sc(N(Cc2cc(F)cc(OC(F)F)c2)c2ccc(C#N)cc2)nc1C(=O)NS(C)(=O)=O [Compound 518, 2-[4-cyano-N-[[3-(difluoromethoxy)-5-fluoro-phenyl]methyl]anilino]-5-methyl-N-methylsulfonyl-thiazole-4-carboxamide] | 25.1 nM | 39.8 nM |
